These results are taken from the supplement of paper PMC11061612.

Test in all cases: Bliss excess, mean over the matrix (fraction); higher = more synergy
The subject of one assay is SK-N-FI (Neuroblastoma). The essentials:
(§1)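 After 24 hours at 37°C and 5% CO2 in 1536-well plates, cells in DMEM/F12 or RPMI plus 10% FBS received two-drug dose matrices for 72 hours. Viability came from CellTiter-Glo 2.0 luminescence and was scaled as inhibition, anchored at 0 by vehicle wells and at 1 by blank wells. Combination Emax is taken as the second-highest inhibition in the matrix, and Bliss excess as the observed combination effect less EA + EB − EA·EB, with EA and EB the single-agent effects.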

Assay [1] deals with SW1990 (Pancreatic Carcinoma). The essentials:
as §1

In assay [2] the test system is DOV13 (Ovarian Carcinoma). The essentials: as §1
Assay [3] deals with SNU-C5 (Colorectal Carcinoma). The essentials: as §1
The test system of assay [4] is TE-5 (Esophageal Squamous Cell Carcinoma). The method in brief:
as §1

The next assay deals with IGR-1 (Melanoma). The method in brief: as §1
Assay [5] deals with G-292-Clone-A141B1 (Osteosarcoma). The method in brief: as §1
Assay [6] concerns JiyoyeP-2003 (Burkitt's Lymphoma). The method in brief: as §1
Assay [7] relates to MFH-ino (Other Solid Carcinomas). The essentials: as §1
The test system of another assay is CAL-78 (Chondrosarcoma). The essentials: as §1
Assay [8] concerns NALM-6 (B-Lymphoblastic Leukemia). The method in brief: as §1
Assay [9] has as its system TGBC24TKB (Biliary Tract Carcinoma). The essentials: as §1
Another assay has as its system NCI-H2369 (Mesothelioma). The essentials:
as §1

The subject of assay [10] is EM-2 (Chronic Myelogenous Leukemia). The essentials:
as §1

In assay [11] the test system is HPAC (Pancreatic Carcinoma). The essentials: as §1
Assay [12] concerns NCI-H1793 (Lung Adenocarcinoma). The method in brief:
as §1

For assay [13], the system named is CTV-1 (T-Lymphoblastic Leukemia). The method in brief:
as §1

In assay [14] the test system is MDA-MB-231 (Breast Carcinoma). The method in brief: as §1
Assay [15] has as its system LU-99A (Non-Small Cell Lung Carcinoma). The essentials:
as §1

The subject of assay [16] is NCI-H1781 (Lung Adenocarcinoma). The essentials: as §1

As to `Cc1c2c(nn1C)CSCc1cc(n(C)n1)CSc1cc(c3ccccc3c1)OCCCc1c(C(=O)O)n(C)c3c-2c(Cl)ccc13` [AZD5991] + CCN(CCO)CCCOc1ccc2c(Nc3cc(CC(=O)Nc4cccc(F)c4)[nH]n3)ncnc2c1 [AZD2811] (first compound max 1 µM, 7x7, partner max 1 µM), the Bliss excess was 0.0054 with SK-N-FI (Neuroblastoma); 0.0159 in [1]; 0.0169 in assay [2]; 0.0247 in assay [3]; -0.0313 in [4]; 0.0316 with IGR-1 (Melanoma). In addition, the Bliss excess was -0.021 in [5]; 0.0917 in assay [6]; 0.0053 in [7]; -0.0228 with CAL-78 (Chondrosarcoma); -0.0839 in assay [8]; 0.0122 in assay [9]. For the same compound, the Bliss excess in the assay with NCI-H2369 (Mesothelioma) is -0.0156; in assay [10], -0.0729; in assay [11], 0.0104; in assay [12], -0.0255; in assay [13] it was 0.0556; in assay [14], 0.0604. The values for the Bliss excess in [15] and in [16] were 0.0252 and -0.0155, respectively.
On to `C[C@@H](c1ccc2nccn2c1)n1nnc2ncc(-c3cnn(C)c3)nc21` [Savolitinib] + Cc1c2c(nn1C)CSCc1cc(n(C)n1)CSc1cc(c3ccccc3c1)OCCCc1c(C(=O)O)n(C)c3c-2c(Cl)ccc13 [AZD5991] (first compound max 1 µM, 7x7, partner max 1 µM), for which the Bliss excess was -0.0077 in the assay with SK-N-FI (Neuroblastoma); -0.0306 in assay [1]; -0.0518 in assay [2]; -0.05 in assay [3]; -0.027 in assay [4]; -0.0112 with IGR-1 (Melanoma). Moreover, the Bliss excess in assay [5] was -0.0381; in [6], -0.0034; in assay [7], -0.0572; in the assay with CAL-78 (Chondrosarcoma), -0.117; in [8], -0.0141; in assay [9] it was -0.029. Further, the Bliss excess in the assay on NCI-H2369 (Mesothelioma) is -0.0527; in assay [10] it was -0.0401; in assay [11], -0.0586; in assay [12] it was -0.0351; in assay [13] it was -0.0223; in assay [14] it was -0.0186. In addition, the Bliss excess in [15] was -0.0346; in assay [16] it was -0.0293.
Turning to `NC1(C(=O)N[C@@H](CCO)c2ccc(Cl)cc2)CCN(c2ncnc3[nH]ccc23)CC1` [Capivasertib] + COc1nnc2ccc(N3CCC(c4ccc(OCCN5CCN(C)C(=O)[C@H]5C)cc4)CC3)nn12 [AZD5153] (first compound max 10 µM, 7x7, partner max 1 µM), the Bliss excess in the assay on SK-N-FI (Neuroblastoma) is -0.0019; in assay [1], -0.0086; in assay [2] it was -0.0489; in assay [3], 0.0669; in assay [4] it was 0.0361; in the assay on IGR-1 (Melanoma), -0.0325. For the same compound, the Bliss excess was 0.0249 in assay [5]; -0.0714 in assay [6]; 0.0006 in assay [7]; 0.0536 in the assay on CAL-78 (Chondrosarcoma); -0.0517 in assay [8]; 0.0597 in assay [9]. Besides, the Bliss excess in the assay on NCI-H2369 (Mesothelioma) was 0.004; in assay [10] it was 0.0043; in assay [11] it was 0.0657; in assay [12] it was 0.0278; in assay [13], 0.0097; in [14], -0.009. Further, the results for the Bliss excess in assay [15] and in assay [16] were 0 and 0.0513, respectively.
Regarding `Cc1c2c(nn1C)CSCc1cc(n(C)n1)CSc1cc(c3ccccc3c1)OCCCc1c(C(=O)O)n(C)c3c-2c(Cl)ccc13` [AZD5991] + CC1(C)CCC(CN2CCN(c3ccc(C(=O)NS(=O)(=O)c4ccc(NCC5CCOCC5)c([N+](=O)[O-])c4)c(Oc4cnc5[nH]ccc5c4)c3)CC2)=C(c2ccc(Cl)cc2)C1 [Venetoclax] (first compound max 1 µM, 7x7, partner max 1 µM), the Bliss excess was 0.034 with SK-N-FI (Neuroblastoma); -0.0317 in [1]; 0.0007 in [2]; -0.0164 in assay [3]; 0.037 in assay [4]; 0.2 in the assay on IGR-1 (Melanoma). The Bliss excess is -0.0292 in [5]; 0.0249 in [6]; -0.0512 in assay [7]; -0.0118 in the assay on CAL-78 (Chondrosarcoma); 0.173 in [8]; -0.0051 in assay [9]. Moreover, the Bliss excess in the assay on NCI-H2369 (Mesothelioma) was -0.0027; in [10] it was 0.248; in assay [11], -0.0498; in assay [12], -0.0081; in assay [13], -0.0011; in [14], 0.0126. Besides, the Bliss excess is -0.0555 in assay [15] and -0.0597 in assay [16].
On to `COc1cccc(OCCCN)c1-c1cc(Nc2cnc(C#N)cn2)n[nH]1` [Prexasertib] + CN(C)CCCOc1ccc(-c2ccc3ncc4c(c3c2)n(C2CCOCC2)c(=O)n4C)cn1 [AZD0156] (first compound max 1 µM, 7x7, partner max 1 µM), for which the Bliss excess in the assay on SK-N-FI (Neuroblastoma) was -0.0168; in [1], -0.0247; in assay [2], -0.0227; in [3], -0.0292; in assay [4], 0.0016; with IGR-1 (Melanoma), 0.0399. Further, the Bliss excess was -0.0849 in assay [5]; -0.0003 in assay [6]; 0.0142 in [7]; -0.0165 in the assay on CAL-78 (Chondrosarcoma); 0.0002 in assay [8]; -0.0414 in assay [9]. Besides, the Bliss excess in the assay with NCI-H2369 (Mesothelioma) was -0.0016; in [10] it was -0.0279; in assay [11] it was 0.0404; in assay [12] it was -0.0227; in assay [13], -0.0108; in [14] it was -0.0306. Also, the Bliss excess is 0.0172 in assay [15] and -0.0803 in assay [16].
Take `Cn1cnc2c(F)c(Nc3ccc(Br)cc3Cl)c(C(=O)NOCCO)cc21` [Selumetinib] + C[C@@H]1COCCN1C2=NC(=NC(=C2)C3(CC3)[S@](=N)(=O)C)C4=C5C=CNC5=NC=C4 [AZD6738] (first compound max 10 µM, 7x7, partner max 10 µM): the Bliss excess is 0.0325 with SK-N-FI (Neuroblastoma); -0.0653 in [1]; -0.11 in assay [2]; 0.0751 in [3]; -0.0388 in assay [4]; 0.0257 in the assay with IGR-1 (Melanoma). The Bliss excess in assay [5] was -0.0303; in assay [6], -0.0145; in assay [7] it was 0.0029; in the assay on CAL-78 (Chondrosarcoma) it was -0.0911; in [8] it was -0.0063; in assay [9], 0.0704. Moreover, the Bliss excess is -0.0338 in the assay on NCI-H2369 (Mesothelioma); 0.0264 in assay [10]; -0.0015 in assay [11]; -0.0402 in assay [12]; -0.001 in assay [13]; -0.025 in assay [14]. For the same compound, the Bliss excess is 0.0565 in assay [15] and -0.0397 in assay [16].
For `NC1(C(=O)N[C@@H](CCO)c2ccc(Cl)cc2)CCN(c2ncnc3[nH]ccc23)CC1` [Capivasertib] + Cn1cnc2c(F)c(Nc3ccc(Br)cc3Cl)c(C(=O)NOCCO)cc21 [Selumetinib] (first compound max 10 µM, 7x7, partner max 10 µM), the Bliss excess with SK-N-FI (Neuroblastoma) was -0.0313; in assay [1], 0.0535; in assay [2], -0.0314; in [3], 0.0154; in [4], 0.0457; in the assay with IGR-1 (Melanoma), 0.103. The Bliss excess in assay [5] was -0.0056; in [6] it was 0.101; in assay [7], -0.0205; in the assay with CAL-78 (Chondrosarcoma), -0.0369; in assay [8] it was 0.0323; in [9] it was 0.132. Besides, the Bliss excess with NCI-H2369 (Mesothelioma) was -0.0292; in assay [10], 0.0766; in [11] it was 0.0152; in [12], -0.0292; in assay [13], 0.106; in assay [14], -0.007. In addition, the Bliss excess in assay [15] was -0.0222; in assay [16], 0.105.
